{"source": "patent US8410310B2", "about": "“Trypsin-like serine protease inhibitors, and their preparation and use” (The Medicines Company (Leipzig) GmbH, priority 2006, dated 2013)", "type_in_all_cases": "biochemical", "key": {"Thrombin": {"target": "Thrombin (Homo sapiens, UniProt P00734)", "assay": "Determination of inhibition constants for thrombin", "method": "(§1) The inhibitory effect for the individual enzymes was determined in analogy to a previously disclosed method (Stürzebecher et al., 1997).\n(§2) For zero order kinetics, the reaction was stopped after 20 min by adding 25 μl of acetic acid (50% v/v), and the absorption at 405 nm was determined using a Microplate Reader (Multiscan Ascent, from Thermo). In the case of pseudo-first order kinetics, the reaction rates in the equilibrium state were ascertained by recording the reaction kinetics. The Ki values were ascertained either in accordance with Dixon (1953) by linear regression using a computer program or by parameter fitting in accordance with the rate equation for competitive inhibition. The Ki values are the average of at least two determinations."}, "Xa": {"target": "Xa (Homo sapiens, UniProt P00742)", "sequence (P00742 235-488 limits assumed)": "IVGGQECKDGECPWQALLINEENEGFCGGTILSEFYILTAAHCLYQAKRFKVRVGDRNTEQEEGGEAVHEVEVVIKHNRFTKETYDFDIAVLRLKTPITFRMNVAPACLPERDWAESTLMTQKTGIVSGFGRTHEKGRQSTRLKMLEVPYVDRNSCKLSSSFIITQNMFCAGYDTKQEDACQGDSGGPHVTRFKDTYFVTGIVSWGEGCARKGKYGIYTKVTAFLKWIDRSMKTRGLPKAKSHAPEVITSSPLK", "sequence (P00742 41-179 limits assumed)": "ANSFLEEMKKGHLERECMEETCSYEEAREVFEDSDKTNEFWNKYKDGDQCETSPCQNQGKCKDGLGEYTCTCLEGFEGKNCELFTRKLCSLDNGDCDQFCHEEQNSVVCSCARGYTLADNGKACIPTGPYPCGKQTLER", "assay": "Determination of inhibition constants for Xa", "method": "as §1, §2"}, "plasmin": {"target": "plasmin (Homo sapiens, UniProt P00747)", "sequence (P00747 581-810 limits assumed)": "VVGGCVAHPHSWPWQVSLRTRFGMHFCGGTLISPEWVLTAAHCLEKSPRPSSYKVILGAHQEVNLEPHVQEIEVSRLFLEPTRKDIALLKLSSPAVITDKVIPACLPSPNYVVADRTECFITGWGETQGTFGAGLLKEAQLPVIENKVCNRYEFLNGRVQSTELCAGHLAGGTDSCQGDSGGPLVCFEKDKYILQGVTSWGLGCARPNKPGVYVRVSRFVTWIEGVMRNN", "sequence (P00747 97-580 partner limits assumed)": "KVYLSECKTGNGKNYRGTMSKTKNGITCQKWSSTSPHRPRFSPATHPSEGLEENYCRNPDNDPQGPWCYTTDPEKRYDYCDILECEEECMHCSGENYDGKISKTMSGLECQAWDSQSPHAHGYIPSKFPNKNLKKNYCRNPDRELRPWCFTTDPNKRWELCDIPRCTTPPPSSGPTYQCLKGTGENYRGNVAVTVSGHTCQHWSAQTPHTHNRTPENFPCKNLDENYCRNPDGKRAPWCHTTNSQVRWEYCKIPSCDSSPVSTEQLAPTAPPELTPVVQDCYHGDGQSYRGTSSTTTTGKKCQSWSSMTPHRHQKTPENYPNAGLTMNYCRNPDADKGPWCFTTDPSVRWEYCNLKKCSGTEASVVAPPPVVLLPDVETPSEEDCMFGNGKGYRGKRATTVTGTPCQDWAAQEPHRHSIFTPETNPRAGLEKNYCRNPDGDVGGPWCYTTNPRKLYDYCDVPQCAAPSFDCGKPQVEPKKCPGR", "assay": "Determination of inhibition constants for plasmin", "design": "purchased Calbiochem", "method": "as §1, §2"}, "plasma kallikrein": {"target": "plasma kallikrein (Homo sapiens, UniProt P03952)", "sequence (P03952 391-638 limits assumed)": "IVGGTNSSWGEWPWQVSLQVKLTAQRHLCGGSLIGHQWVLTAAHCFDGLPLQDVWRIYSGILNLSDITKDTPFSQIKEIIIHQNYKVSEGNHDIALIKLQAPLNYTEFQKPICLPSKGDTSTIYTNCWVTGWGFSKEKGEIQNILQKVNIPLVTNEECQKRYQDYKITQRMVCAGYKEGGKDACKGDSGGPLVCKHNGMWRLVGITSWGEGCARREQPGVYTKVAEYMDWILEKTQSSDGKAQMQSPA", "sequence (P03952 20-390 partner limits assumed)": "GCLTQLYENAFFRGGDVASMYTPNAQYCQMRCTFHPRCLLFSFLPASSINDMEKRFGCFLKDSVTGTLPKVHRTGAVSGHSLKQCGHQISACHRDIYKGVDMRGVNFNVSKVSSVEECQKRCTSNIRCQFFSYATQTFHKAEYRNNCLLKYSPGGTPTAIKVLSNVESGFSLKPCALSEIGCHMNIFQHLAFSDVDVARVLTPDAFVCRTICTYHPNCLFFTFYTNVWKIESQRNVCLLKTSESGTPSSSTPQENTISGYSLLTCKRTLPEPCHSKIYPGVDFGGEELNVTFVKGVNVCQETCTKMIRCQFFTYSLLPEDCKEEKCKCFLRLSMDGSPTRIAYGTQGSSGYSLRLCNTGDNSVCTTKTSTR", "assay": "Determination of inhibition constants for PK", "design": "purchased Enzyme Research Lab. / Enzyme Research Laboratories", "method": "as §1, §2"}, "[1]": {"conditions": "25° C., substrate Chromozym PL, pH 8.0, read-out: Plasmin [Ki]"}, "[2]": {"conditions": "25° C., substrate S2302, pH 8.0, read-out: PK [Ki]"}, "[3]": {"conditions": "summary of results, read-out: Ki value of the plasmin inhibition"}, "[4]": {"conditions": "summary of results, read-out: Ki value of the plasma kallikrein inhibition"}}, "note": "Like-named read-outs stand apart in the source and are kept apart here.", "data": [{"smiles": "N=C(N)c1ccc(CNC(=O)[C@H](Cc2c[nH]cn2)NC(=O)[C@@H](CCCc2ccccc2)NS(=O)(=O)Cc2ccccc2)cc1", "note": "[compound 32]", "values": [{"measurement": "Ki", "setting": "Thrombin", "value": "< 100", "unit": "nM"}, {"measurement": "Ki", "setting": "Xa", "value": "< 1000", "unit": "nM"}, {"measurement": "Ki", "setting": "plasmin; [1]", "value": "< 10", "unit": "nM"}, {"measurement": "Ki", "setting": "plasma kallikrein; [2]", "value": "< 100", "unit": "nM"}]}, {"smiles": "N=C(N)c1ccc(CNC(=O)[C@H](Cc2c[nH]cn2)NC(=O)[C@@H](CCCc2ccccc2)NS(=O)(=O)Cc2cccc(C(=O)O)c2)cc1", "note": "[compound 33]", "values": [{"measurement": "Ki", "setting": "Thrombin", "value": "> 1000", "unit": "nM"}, {"measurement": "Ki", "setting": "Xa", "value": "< 1000", "unit": "nM"}, {"measurement": "Ki", "setting": "plasmin; [1]", "value": "< 10", "unit": "nM"}, {"measurement": "Ki", "setting": "plasma kallikrein; [2]", "value": "< 100", "unit": "nM"}]}, {"smiles": "N=C(N)c1ccc(CNC(=O)[C@H](CCc2ccccc2)NC(=O)[C@@H](CCCc2ccccc2)NS(=O)(=O)Cc2ccccc2)cc1", "note": "[compound 34]", "values": [{"measurement": "Ki", "setting": "Thrombin", "value": "< 100", "unit": "nM"}, {"measurement": "Ki", "setting": "Xa", "value": "< 1000", "unit": "nM"}, {"measurement": "Ki", "setting": "plasmin; [1]", "value": "< 10", "unit": "nM"}, {"measurement": "Ki", "setting": "plasma kallikrein; [2]", "value": "< 10", "unit": "nM"}]}, {"smiles": "N=C(N)c1ccc(CNC(=O)[C@H](CCc2ccccc2)NC(=O)[C@@H](CCCc2ccccc2)NS(=O)(=O)Cc2ccc(C(=O)O)cc2)cc1", "note": "[compound 35]", "values": [{"measurement": "Ki", "setting": "Thrombin", "value": "< 1000", "unit": "nM"}, {"measurement": "Ki", "setting": "Xa", "value": "< 1000", "unit": "nM"}, {"measurement": "Ki", "setting": "plasmin; [1]", "value": "< 10", "unit": "nM"}, {"measurement": "Ki", "setting": "plasmin; [3]", "value": "< 5", "unit": "nM"}, {"measurement": "Ki", "setting": "plasma kallikrein; [2]", "value": "< 10", "unit": "nM"}]}, {"smiles": "N=C(N)c1ccc(CNC(=O)[C@H](CCc2ccccc2)NC(=O)[C@@H](CCCc2ccccc2)NS(=O)(=O)Cc2cccc(C(=O)O)c2)cc1", "note": "[compound 36]", "values": [{"measurement": "Ki", "setting": "Thrombin", "value": "< 1000", "unit": "nM"}, {"measurement": "Ki", "setting": "Xa", "value": "< 100", "unit": "nM"}, {"measurement": "Ki", "setting": "plasmin; [1]", "value": "< 10", "unit": "nM"}, {"measurement": "Ki", "setting": "plasma kallikrein; [2]", "value": "< 10", "unit": "nM"}]}, {"smiles": "N=C(N)c1ccc(CNC(=O)[C@H](CCc2ccc(CN)cc2)NC(=O)[C@@H](CC2CCCCC2)NS(=O)(=O)Cc2ccccc2)cc1", "note": "[compound 37]", "values": [{"measurement": "Ki", "setting": "Thrombin", "value": "< 100", "unit": "nM"}, {"measurement": "Ki", "setting": "Xa", "value": "< 100", "unit": "nM"}, {"measurement": "Ki", "setting": "plasmin; [1]", "value": "< 100", "unit": "nM"}, {"measurement": "Ki", "setting": "plasma kallikrein; [2]", "value": "< 100", "unit": "nM"}]}, {"smiles": "N=C(N)c1ccc(CC[C@H](NC(=O)[C@@H](CC2CCCCC2)NS(=O)(=O)Cc2ccccc2)C(=O)NCc2ccc(C(=N)N)cc2)cc1", "note": "[compound 38]", "values": [{"measurement": "Ki", "setting": "Thrombin", "value": "< 10", "unit": "nM"}, {"measurement": "Ki", "setting": "Xa", "value": "< 100", "unit": "nM"}, {"measurement": "Ki", "setting": "plasmin; [1]", "value": "< 10", "unit": "nM"}, {"measurement": "Ki", "setting": "plasmin; [3]", "value": "< 5", "unit": "nM"}, {"measurement": "Ki", "setting": "plasma kallikrein; [2]", "value": "< 100", "unit": "nM"}]}, {"smiles": "N=C(N)c1ccc(CNC(=O)[C@H](CCc2ccncc2)NC(=O)[C@@H](CCCc2ccccc2)NS(=O)(=O)Cc2ccccc2)cc1", "note": "[compound 39]", "values": [{"measurement": "Ki", "setting": "Thrombin", "value": "< 10", "unit": "nM"}, {"measurement": "Ki", "setting": "Xa", "value": "< 100", "unit": "nM"}, {"measurement": "Ki", "setting": "plasmin; [1]", "value": "< 10", "unit": "nM"}, {"measurement": "Ki", "setting": "plasmin; [3]", "value": "< 5", "unit": "nM"}, {"measurement": "Ki", "setting": "plasma kallikrein; [2]", "value": "< 10", "unit": "nM"}, {"measurement": "Ki", "setting": "plasma kallikrein; [4]", "value": "< 1", "unit": "nM"}]}, {"smiles": "N=C(N)c1ccc(CNC(=O)[C@H](CCc2ccncc2)NC(=O)[C@@H](CCCc2ccccc2)NS(=O)(=O)Cc2cccc(C(=O)O)c2)cc1", "note": "[compound 40]", "values": [{"measurement": "Ki", "setting": "Thrombin", "value": "< 100", "unit": "nM"}, {"measurement": "Ki", "setting": "Xa", "value": "< 1000", "unit": "nM"}, {"measurement": "Ki", "setting": "plasmin; [1]", "value": "< 10", "unit": "nM"}, {"measurement": "Ki", "setting": "plasma kallikrein; [2]", "value": "< 10", "unit": "nM"}, {"measurement": "Ki", "setting": "plasma kallikrein; [4]", "value": "< 1", "unit": "nM"}]}, {"smiles": "N=C(N)c1ccc(CNC(=O)[C@H](CCc2cc[n+]([O-])cc2)NC(=O)[C@@H](CCCc2ccccc2)NS(=O)(=O)Cc2ccccc2)cc1", "note": "[compound 41]", "values": [{"measurement": "Ki", "setting": "Thrombin", "value": "< 100", "unit": "nM"}, {"measurement": "Ki", "setting": "Xa", "value": "< 1000", "unit": "nM"}, {"measurement": "Ki", "setting": "plasmin; [1]", "value": "< 10", "unit": "nM"}, {"measurement": "Ki", "setting": "plasma kallikrein; [2]", "value": "< 10", "unit": "nM"}]}, {"smiles": "N=C(N)c1ccc(CNC(=O)[C@H](CCc2cc[n+]([O-])cc2)NC(=O)[C@@H](CCCc2ccccc2)NS(=O)(=O)Cc2cccc(C(=O)O)c2)cc1", "note": "[compound 42]", "values": [{"measurement": "Ki", "setting": "Thrombin", "value": "< 1000", "unit": "nM"}, {"measurement": "Ki", "setting": "Xa", "value": "> 1000", "unit": "nM"}, {"measurement": "Ki", "setting": "plasmin; [1]", "value": "< 100", "unit": "nM"}, {"measurement": "Ki", "setting": "plasma kallikrein; [2]", "value": "< 10", "unit": "nM"}]}, {"smiles": "N=C(N)c1ccc(CNC(=O)[C@H](CCc2ccncc2)NC(=O)[C@@H](CC2CCCCC2)NS(=O)(=O)Cc2ccccc2)cc1", "note": "[compound 43]", "values": [{"measurement": "Ki", "setting": "Thrombin", "value": "< 10", "unit": "nM"}, {"measurement": "Ki", "setting": "Xa", "value": "< 100", "unit": "nM"}, {"measurement": "Ki", "setting": "plasmin; [1]", "value": "< 10", "unit": "nM"}, {"measurement": "Ki", "setting": "plasma kallikrein; [2]", "value": "< 100", "unit": "nM"}]}, {"smiles": "N=C(N)c1ccc(CNC(=O)[C@H](CCc2ccncc2)NC(=O)[C@@H](CCc2ccccc2)NS(=O)(=O)Cc2ccccc2)cc1", "note": "[compound 44]", "values": [{"measurement": "Ki", "setting": "Thrombin", "value": "< 100", "unit": "nM"}, {"measurement": "Ki", "setting": "Xa", "value": "< 100", "unit": "nM"}, {"measurement": "Ki", "setting": "plasmin; [1]", "value": "< 100", "unit": "nM"}, {"measurement": "Ki", "setting": "plasma kallikrein; [2]", "value": "< 100", "unit": "nM"}]}, {"smiles": "N#Cc1cccc(C[C@@H](NS(=O)(=O)Cc2ccccc2)C(=O)N[C@@H](CCc2ccncc2)C(=O)NCc2ccc(C(=N)N)cc2)c1", "note": "[compound 45]", "values": [{"measurement": "Ki", "setting": "Thrombin", "value": "< 100", "unit": "nM"}, {"measurement": "Ki", "setting": "Xa", "value": "< 1000", "unit": "nM"}, {"measurement": "Ki", "setting": "plasmin; [1]", "value": "< 10", "unit": "nM"}, {"measurement": "Ki", "setting": "plasma kallikrein; [2]", "value": "< 10", "unit": "nM"}]}, {"smiles": "N=C(N)c1ccc(CNC(=O)[C@H](CCc2ccncc2)NC(=O)[C@H](NS(=O)(=O)Cc2ccccc2)C2Cc3ccccc3C2)cc1", "note": "[compound 46]", "values": [{"measurement": "Ki", "setting": "Thrombin", "value": "< 100", "unit": "nM"}, {"measurement": "Ki", "setting": "Xa", "value": "< 1000", "unit": "nM"}, {"measurement": "Ki", "setting": "plasmin; [1]", "value": "< 10", "unit": "nM"}, {"measurement": "Ki", "setting": "plasmin; [3]", "value": "< 5", "unit": "nM"}, {"measurement": "Ki", "setting": "plasma kallikrein; [2]", "value": "< 10", "unit": "nM"}]}]}
